Assay results reported in ChEMBL document CHEMBL2311262, “Structure activity relationship studies of tricyclic bispyran sulfone γ-secretase inhibitors” (Bioorg Med Chem Lett, 2013).
Each block holds one molecule with its values, some of them ahead of it.

Legend:
Gamma-secretase [1] = assay: Inhibition of gamma secretase-mediated amyloid beta42 production in HEK293 cells transfected with human APPSOW and APPLON after 5 hrs by sandwich immunoassay; type: cell-based
Gamma-secretase [2] = assay: Inhibition of gamma secretase-mediated amyloid beta40 production in HEK293 cells transfected with human APPSOW and APPLON after 5 hrs by sandwich immunoassay; type: cell-based
Gamma-secretase [3] = assay: Inhibition of gamma secretase-mediated amyloid beta40 production in HEK293 cell membranes transfected with human APPSOW and APPLON mutant after 5 hrs by sandwich immunoassay; type: cell-based
Mus musculus [4] = assay: Inhibition of gamma secretase in B6C3F1 mouse assessed as […] in plasma amyloid beta40 production at 10 mg/kg, po measured at 3 hrs; type: functional
[5] = Ratio of drug level in brain to plasma in rat at 6 hrs; type: ADME; details: read-out: BPR
Homo sapiens = species: Homo sapiens; assay: Selectivity ratio of inhibition of PS2 (unknown origin) to inhibition of PS1 (unknown origin)
[6] = Volume of distribution at steady state in dog at 2.5 mg/kg, iv; type: ADME, organism-based, Canis lupus familiaris; parameters: dose 2.5 mg/kg, route intravenous; details: in vivo, read-out: Vdss
[7] = Volume of distribution at steady state in rat at 5 mg/kg, iv; type: ADME, organism-based; parameters: dose 5 mg/kg, route intravenous; details: in vivo, read-out: Vdss
[8] = Volume of distribution at steady state in monkey at 2.5 mg/kg, iv; type: ADME, organism-based, Macaca mulatta; parameters: dose 2.5 mg/kg, route intravenous; details: rhesus monkey, in vivo, read-out: Vdss
[9] = Clearance in monkey at 2.5 mg/kg, iv; type: ADME, organism-based, Macaca mulatta; parameters: dose 2.5 mg/kg, route intravenous; details: rhesus monkey, in vivo
[10] = Clearance in dog at 2.5 mg/kg, iv; type: ADME, organism-based, Canis lupus familiaris; parameters: dose 2.5 mg/kg, route intravenous; details: in vivo
[11] = Clearance in rat at 5 mg/kg, iv; type: ADME, organism-based; parameters: dose 5 mg/kg, route intravenous; details: in vivo
[12] = Oral bioavailability in dog at 10 mg/kg; type: ADME, organism-based, Canis lupus familiaris; details: in vivo
[13] = Oral bioavailability in rat at 10 mg/kg; type: ADME, organism-based; details: in vivo
[14] = Oral bioavailability in monkey at 10 mg/kg; type: ADME, organism-based, Macaca mulatta; details: rhesus monkey, in vivo
[15] = Half life in dog at 10 mg/kg, po; type: ADME, organism-based, Canis lupus familiaris; parameters: dose 10 mg/kg, route oral; details: in vivo
[16] = Half life in monkey at 10 mg/kg, po; type: ADME, organism-based, Macaca mulatta; parameters: dose 10 mg/kg, route oral; details: rhesus monkey, in vivo
[17] = Half life in rat at 10 mg/kg, po; type: ADME, organism-based; parameters: dose 10 mg/kg, route oral; details: in vivo
[18] = Tmax in dog at 10 mg/kg, po; type: ADME, organism-based, Canis lupus familiaris; parameters: dose 10 mg/kg, route oral; details: in vivo
[19] = Tmax in monkey at 10 mg/kg, po; type: ADME, organism-based, Macaca mulatta; parameters: dose 10 mg/kg, route oral; details: rhesus monkey, in vivo
[20] = Tmax in rat at 10 mg/kg, po; type: ADME, organism-based; parameters: dose 10 mg/kg, route oral; details: in vivo
[21] = Cmax in dog at 10 mg/kg, po; type: ADME, organism-based, Canis lupus familiaris; parameters: dose 10 mg/kg, route oral; details: in vivo
[22] = Cmax in rat at 10 mg/kg, po; type: ADME, organism-based; parameters: dose 10 mg/kg, route oral; details: in vivo
[23] = Cmax in monkey at 10 mg/kg, po; type: ADME, organism-based, Macaca mulatta; parameters: dose 10 mg/kg, route oral; details: rhesus monkey, in vivo
[24] = AUC (0 to infinity) in dog at 10 mg/kg, po; type: ADME, organism-based, Canis lupus familiaris; parameters: time infinity, dose 10 mg/kg, route oral; details: plasma
[25] = AUC (0 to infinity) in rat at 10 mg/kg, po; type: ADME, organism-based; parameters: time infinity, dose 10 mg/kg, route oral; details: plasma
[26] = AUC (0 to infinity) in monkey at 10 mg/kg, po; type: ADME, organism-based, Macaca mulatta; parameters: time infinity, dose 10 mg/kg, route oral; details: rhesus monkey, plasma
[27] = Inhibition of CYP450 (unknown origin); type: ADME, Homo sapiens
hERG (KCNH2) = hERG (KCNH2) (Homo sapiens, UniProt Q12809); assay: Inhibition of human ERG at 10 uM by voltage clamp assay
Gamma-secretase [28] = assay: Inhibition of gamma secretase-mediated notch cleavage in HEK293 cells expressing human notch protein with truncated extracellular EGF repeat domain by sandwich immunoassay; type: cell-based
Rattus norvegicus [29] = assay: Inhibition of gamma secretase in po dosed CD rat assessed as lowering of CSF amyloid beta40 production measured at 3 hrs; type: functional
Rattus norvegicus [30] = assay: Inhibition of gamma secretase in po dosed CD rat assessed as lowering of cortex amyloid beta40 production measured at 3 hrs; type: functional
Mus musculus [31] = assay: Inhibition of gamma secretase in po dosed B6C3F1 mouse assessed as lowering of plasma amyloid beta40 production measured at 3 hrs; type: functional
Mus musculus [32] = assay: Inhibition of gamma secretase in po dosed B6C3F1 mouse assessed as lowering of cortex amyloid beta40 production measured at 3 hrs; type: functional
Rattus norvegicus [33] = assay: Inhibition of gamma secretase in po dosed CD rat assessed as lowering of plasma amyloid beta40 production measured at 3 hrs; type: functional

Chain of hERG (KCNH2) (Q12809 whole entry, the tested form may be a part): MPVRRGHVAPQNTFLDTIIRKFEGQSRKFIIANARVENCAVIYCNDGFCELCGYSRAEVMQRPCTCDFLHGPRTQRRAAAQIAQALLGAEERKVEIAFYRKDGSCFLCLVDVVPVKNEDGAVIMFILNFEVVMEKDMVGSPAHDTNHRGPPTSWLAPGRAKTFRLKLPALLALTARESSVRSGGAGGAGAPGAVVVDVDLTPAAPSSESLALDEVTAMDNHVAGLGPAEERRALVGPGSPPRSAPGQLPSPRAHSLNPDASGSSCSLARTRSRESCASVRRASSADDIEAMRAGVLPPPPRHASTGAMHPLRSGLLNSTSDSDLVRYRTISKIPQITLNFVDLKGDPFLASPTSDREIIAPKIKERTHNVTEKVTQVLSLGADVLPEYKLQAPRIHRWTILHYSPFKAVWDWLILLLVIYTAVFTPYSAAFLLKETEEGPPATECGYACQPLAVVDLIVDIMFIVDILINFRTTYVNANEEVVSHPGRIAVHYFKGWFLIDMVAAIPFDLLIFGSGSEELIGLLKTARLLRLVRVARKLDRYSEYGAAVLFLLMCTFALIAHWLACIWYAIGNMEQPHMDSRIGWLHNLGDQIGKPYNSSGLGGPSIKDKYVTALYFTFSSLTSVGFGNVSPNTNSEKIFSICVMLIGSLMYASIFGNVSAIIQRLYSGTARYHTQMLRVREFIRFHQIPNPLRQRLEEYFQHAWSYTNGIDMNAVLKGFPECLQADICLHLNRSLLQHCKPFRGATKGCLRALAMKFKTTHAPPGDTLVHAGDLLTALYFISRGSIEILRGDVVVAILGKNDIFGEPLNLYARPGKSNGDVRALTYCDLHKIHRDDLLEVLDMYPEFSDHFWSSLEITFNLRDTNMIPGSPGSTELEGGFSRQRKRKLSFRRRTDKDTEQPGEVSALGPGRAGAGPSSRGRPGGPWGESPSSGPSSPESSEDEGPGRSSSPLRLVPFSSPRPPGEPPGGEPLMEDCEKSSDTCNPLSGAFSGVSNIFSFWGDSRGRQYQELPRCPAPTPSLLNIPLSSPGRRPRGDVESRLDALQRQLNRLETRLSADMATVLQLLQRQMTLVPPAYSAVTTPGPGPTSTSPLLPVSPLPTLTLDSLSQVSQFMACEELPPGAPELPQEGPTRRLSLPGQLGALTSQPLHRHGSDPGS

IC50 (Gamma-secretase [1]): 2 nM
IC50 (Gamma-secretase [2]): 5 nM
IC50 (Gamma-secretase [3]): 3 nM
Structure (SMILES): CCS(=O)(=O)CC[C@@H]1OCC[C@@]2(S(=O)(=O)c3ccc(Cl)cc3)c3c(F)ccc(F)c3OC[C@@H]12

IC50 (Gamma-secretase [3]): 5100 nM
Structure (SMILES): CS(=O)(=O)CC[C@@H]1OCC[C@@]2(S(=O)(=O)c3ccc(OCC(F)(F)F)cc3)c3c(F)ccc(F)c3OC[C@@H]12

IC50 (Gamma-secretase [1]): 22 nM
IC50 (Gamma-secretase [2]): 38 nM
IC50 (Gamma-secretase [3]): 2.7 nM
Kp at 6 h [5]: 0.1
Structure (SMILES): O=C(O)CS(=O)(=O)CC[C@@H]1OCC[C@@]2(S(=O)(=O)c3ccc(Cl)cc3)c3c(F)ccc(F)c3OC[C@@H]12
inhibition in vivo at 10 mg/kg (Mus musculus [4]): 47%

IC50 (Gamma-secretase [3]): 360 nM
Structure (SMILES): COc1ccc(S(=O)(=O)[C@@]23CCO[C@@H](CCS(C)(=O)=O)[C@@H]2COc2c(F)ccc(F)c23)cc1

IC50 (Gamma-secretase [1]): 0.9 nM
IC50 (Gamma-secretase [2]): 1.2 nM
IC50 (Gamma-secretase [3]): 1 nM
Kp at 6 h [5]: 0.1
Structure (SMILES): O=S(=O)(CCO)CC[C@@H]1OCC[C@@]2(S(=O)(=O)c3ccc(Cl)cc3)c3c(F)ccc(F)c3OC[C@@H]12

IC50 (Gamma-secretase [1]): 6.4 nM
IC50 (Gamma-secretase [2]): 22 nM
IC50 (Gamma-secretase [3]): 7.3 nM
Structure (SMILES): O=S(=O)(CC[C@@H]1OCC[C@@]2(S(=O)(=O)c3ccc(Cl)cc3)c3c(F)ccc(F)c3OC[C@@H]12)CC(F)(F)F

IC50 (Gamma-secretase [1]): 1.4 nM
IC50 (Gamma-secretase [2]): 14 nM
IC50 (Gamma-secretase [3]): 31 nM
Structure (SMILES): CS(=O)(=O)CC[C@@H]1OCC[C@@]2(S(=O)(=O)c3ccc(F)c(F)c3)c3c(F)ccc(F)c3OC[C@@H]12

IC50 (Gamma-secretase [1]): 3 nM
IC50 (Gamma-secretase [2]): 8 nM
IC50 (Gamma-secretase [3]): 5.5 nM
Structure (SMILES): CC(C)S(=O)(=O)CC[C@@H]1OCC[C@@]2(S(=O)(=O)c3ccc(Cl)cc3)c3c(F)ccc(F)c3OC[C@@H]12

IC50 (Gamma-secretase [1]): 5 nM
IC50 (Gamma-secretase [2]): 11 nM
IC50 (Gamma-secretase [3]): 6.8 nM
Structure (SMILES): CCCS(=O)(=O)CC[C@@H]1OCC[C@@]2(S(=O)(=O)c3ccc(Cl)cc3)c3c(F)ccc(F)c3OC[C@@H]12

IC50 (Gamma-secretase [1]): 0.6 nM
IC50 (Gamma-secretase [2]): 2.5 nM
IC50 (Gamma-secretase [3]): 2.9 nM
Structure (SMILES): CS(=O)(=O)CC[C@@H]1OCC[C@@]2(S(=O)(=O)c3ccc(Br)cc3)c3c(F)ccc(F)c3OC[C@@H]12

IC50 (Gamma-secretase [1]): 120 nM
IC50 (Gamma-secretase [2]): 400 nM
IC50 (Gamma-secretase [3]): 580 nM
Structure (SMILES): CS(=O)(=O)CC[C@@H]1OCC[C@@]2(S(=O)(=O)c3ccc(C#N)c(C#N)c3)c3c(F)ccc(F)c3OC[C@@H]12

Selectivity ratio (Homo sapiens): 19
IC50 (Gamma-secretase [1]): 1 nM
IC50 (Gamma-secretase [2]): 4 nM
IC50 (Gamma-secretase [3]): 1.3 nM
Structure (SMILES): CS(=O)(=O)CC[C@@H]1OCC[C@@]2(S(=O)(=O)c3ccc(Cl)cc3)c3c(F)ccc(F)c3OC[C@@H]12

IC50 (Gamma-secretase [1]): 4.7 nM
IC50 (Gamma-secretase [2]): 13 nM
IC50 (Gamma-secretase [3]): 4.3 nM
Structure (SMILES): O=S(=O)(CC[C@@H]1OCC[C@@]2(S(=O)(=O)c3ccc(Cl)cc3)c3c(F)ccc(F)c3OC[C@@H]12)c1cnn[nH]1

IC50 (Gamma-secretase [1]): 4.4 nM
IC50 (Gamma-secretase [2]): 13 nM
IC50 (Gamma-secretase [3]): 7.4 nM
Structure (SMILES): O=S(=O)(CC[C@@H]1OCC[C@@]2(S(=O)(=O)c3ccc(Cl)cc3)c3c(F)ccc(F)c3OC[C@@H]12)C(F)(F)F

Vd [6]: 6.1 L/kg
Vd [7]: 8.9 L/kg
Vd [8]: 6.6 L/kg
clearance [9]: 6.5 mL/min/kg
clearance [10]: 4.6 mL/min/kg
clearance [11]: 40 mL/min/kg
bioavailability [12]: 100%
bioavailability [13]: 44%
bioavailability [14]: 70%
half-life [15]: 17 h
half-life [16]: 17 h
half-life [17]: 3.6 h
Tmax [18]: 2.3 h
Tmax [19]: 5.3 h
Tmax [20]: 2 h
Cmax [21]: 1500 nM
Cmax [22]: 680 nM
Cmax [23]: 810 nM
AUC(0-inf) [24]: 46 µM·h
AUC(0-inf) [25]: 3.5 µM·h
AUC(0-inf) [26]: 18 µM·h
IC50 [27]: > 10000 nM
IC50 (Gamma-secretase [28]): 31 nM
IC50 (Gamma-secretase [1]): 3.5 nM
IC50 (Gamma-secretase [2]): 11 nM
IC50 (Gamma-secretase [3]): 15 nM
Structure (SMILES): CS(=O)(=O)CC[C@@H]1OCC[C@@]2(S(=O)(=O)c3ccc(C(F)(F)F)cc3)c3c(F)ccc(F)c3OC[C@@H]12
inhibition at 10 µM (hERG (KCNH2)): 31%
ED50 (Rattus norvegicus [29]): 7.4 mg/kg
ED50 (Rattus norvegicus [30]): 2.8 mg/kg
ED50 (Mus musculus [31]): 7.7 mg/kg
ED50 (Mus musculus [32]): 8 mg/kg
ED50 (Rattus norvegicus [33]): 1.9 mg/kg

IC50 (Gamma-secretase [3]): 4.5 nM
Structure (SMILES): O=S(=O)(CCCO)CC[C@@H]1OCC[C@@]2(S(=O)(=O)c3ccc(Cl)cc3)c3c(F)ccc(F)c3OC[C@@H]12

IC50 (Gamma-secretase [1]): 8.9 nM
IC50 (Gamma-secretase [2]): 25 nM
IC50 (Gamma-secretase [3]): 66 nM
Structure (SMILES): CS(=O)(=O)CC[C@@H]1OCC[C@@]2(S(=O)(=O)c3ccc(C#N)cc3)c3c(F)ccc(F)c3OC[C@@H]12

IC50 (Gamma-secretase [3]): 250 nM
Structure (SMILES): CS(=O)(=O)CC[C@@H]1OCC[C@@]2(S(=O)(=O)c3cc(F)cc(F)c3)c3c(F)ccc(F)c3OC[C@@H]12

IC50 (Gamma-secretase [1]): 4.7 nM
IC50 (Gamma-secretase [2]): 8.9 nM
IC50 (Gamma-secretase [3]): 2.1 nM
Structure (SMILES): O=S(=O)(CC[C@@H]1OCC[C@@]2(S(=O)(=O)c3ccc(Cl)cc3)c3c(F)ccc(F)c3OC[C@@H]12)c1ncn[nH]1
inhibition in vivo at 10 mg/kg (Mus musculus [4]): 30%

IC50 (Gamma-secretase [1]): 1.8 nM
IC50 (Gamma-secretase [2]): 1.5 nM
IC50 (Gamma-secretase [3]): 1.4 nM
Structure (SMILES): O=S(=O)(CC[C@@H]1OCC[C@@]2(S(=O)(=O)c3ccc(Cl)cc3)c3c(F)ccc(F)c3OC[C@@H]12)c1ncc[nH]1

IC50 (Gamma-secretase [3]): 2.1 nM
Structure (SMILES): O=S(=O)(CC[C@@H]1OCC[C@@]2(S(=O)(=O)c3ccc(Cl)cc3)c3c(F)ccc(F)c3OC[C@@H]12)C1CC1
